Consider 18 compounds from ChEMBL document CHEMBL3785070, “Synthesis and evaluation of novel opioid ligands with a C-homomorphinan skeleton” (Bioorg Med Chem, 2016).

The structures appear in SMILES notation.

Experiment [1] addresses T1, Mu-type opioid receptor (Homo sapiens, UniProt P35372). Kind of experiment: Displacement of [3H]DAMGO from human mu opioid receptor expressed in CHO cell membranes.
In experiment [2] the target is T2, Delta-type opioid receptor (Homo sapiens, UniProt P41143). Kind of experiment: Agonist activity at human delta opioid receptor expressed in CHO cell membranes by [35S]GTPgammaS binding assay. The class given is functional. A general note: Binding of GTPγS marks nucleotide exchange on a G protein.
Experiment [3] has as its target T1, Mu-type opioid receptor. Kind of experiment: Agonist activity at human mu opioid receptor expressed in CHO cell membranes by [35S]GTPgammaS binding assay. The class given is functional.
Experiment [4] has as its target T2, Delta-type opioid receptor. Description: Displacement of [3H]DPDPE from human delta opioid receptor expressed in CHO cell membranes.
Experiment [5] deals with T3, Kappa-type opioid receptor (Homo sapiens, UniProt P41145). Description: Agonist activity at human kappa opioid receptor expressed in CHO cell membranes by [35S]GTPgammaS binding assay. The class given is functional.
Experiment [6] deals with T3, Kappa-type opioid receptor. Kind of experiment: Displacement of [3H]U-69,593 from human kappa opioid receptor expressed in CHO cell membranes. In general terms: In a radioligand displacement assay an active substance lowers the binding of a labelled ligand.
Experiment [7] concerns CHO. Description: Selectivity ratio of Ki for human kappa opioid receptor expressed in CHO cell membranes to Ki for human delta opioid receptor expressed in CHO cell membranes. The class given is cell-based.
Experiment [8] concerns the target T2, Delta-type opioid receptor. Description: Agonist activity at human delta opioid receptor expressed in CHO cell membranes by [35S]GTPgammaS binding assay relative to SNC80. The format is functional.
Experiment [9] concerns the target T3, Kappa-type opioid receptor. Description: Agonist activity at human kappa opioid receptor expressed in CHO cell membranes by [35S]GTPgammaS binding assay relative to U-69,593. The class given is functional.
Experiment [10] relates to CHO. Kind of experiment: Selectivity ratio of Ki for human mu opioid receptor expressed in CHO cell membranes to Ki for human delta opioid receptor expressed in CHO cell membranes. The format is cell-based.
Experiment [11] deals with T1, Mu-type opioid receptor. Kind of experiment: Agonist activity at human mu opioid receptor expressed in CHO cell membranes by [35S]GTPgammaS binding assay relative to DAMGO. The class given is functional.
Experiment [12] addresses T1, Mu-type opioid receptor. Description: Agonist activity at human mu opioid receptor expressed in CHO cell membranes at 10 uM by [35S]GTPgammaS binding assay relative to DAMGO. The format is functional.
Experiment [13] addresses T3, Kappa-type opioid receptor. Description: Agonist activity at human kappa opioid receptor expressed in CHO cell membranes at 10 uM by [35S]GTPgammaS binding assay relative to U-69,593. The class given is functional.

T2 sequence (P41143 whole entry): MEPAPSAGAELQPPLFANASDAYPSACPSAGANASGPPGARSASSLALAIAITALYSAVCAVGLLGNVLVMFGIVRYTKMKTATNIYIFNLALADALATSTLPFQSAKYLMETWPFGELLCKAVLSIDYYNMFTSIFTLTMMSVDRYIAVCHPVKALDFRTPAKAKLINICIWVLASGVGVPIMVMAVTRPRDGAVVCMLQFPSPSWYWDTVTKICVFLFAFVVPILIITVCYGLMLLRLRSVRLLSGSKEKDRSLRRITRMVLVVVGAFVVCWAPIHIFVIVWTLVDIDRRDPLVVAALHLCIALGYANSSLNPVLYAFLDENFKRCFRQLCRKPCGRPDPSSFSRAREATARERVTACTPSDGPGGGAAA
T1 sequence (P35372 whole entry): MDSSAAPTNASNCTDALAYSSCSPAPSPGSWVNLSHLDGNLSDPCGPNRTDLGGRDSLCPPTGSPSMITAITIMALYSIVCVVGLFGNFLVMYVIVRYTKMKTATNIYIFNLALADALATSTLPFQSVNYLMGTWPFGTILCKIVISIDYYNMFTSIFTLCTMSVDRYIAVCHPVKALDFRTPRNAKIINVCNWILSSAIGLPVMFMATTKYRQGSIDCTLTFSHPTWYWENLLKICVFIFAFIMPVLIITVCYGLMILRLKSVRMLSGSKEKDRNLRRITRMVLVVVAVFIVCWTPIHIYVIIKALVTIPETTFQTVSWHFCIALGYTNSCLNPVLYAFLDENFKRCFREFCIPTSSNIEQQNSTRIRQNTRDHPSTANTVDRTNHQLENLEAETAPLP
T3 sequence (P41145 whole entry): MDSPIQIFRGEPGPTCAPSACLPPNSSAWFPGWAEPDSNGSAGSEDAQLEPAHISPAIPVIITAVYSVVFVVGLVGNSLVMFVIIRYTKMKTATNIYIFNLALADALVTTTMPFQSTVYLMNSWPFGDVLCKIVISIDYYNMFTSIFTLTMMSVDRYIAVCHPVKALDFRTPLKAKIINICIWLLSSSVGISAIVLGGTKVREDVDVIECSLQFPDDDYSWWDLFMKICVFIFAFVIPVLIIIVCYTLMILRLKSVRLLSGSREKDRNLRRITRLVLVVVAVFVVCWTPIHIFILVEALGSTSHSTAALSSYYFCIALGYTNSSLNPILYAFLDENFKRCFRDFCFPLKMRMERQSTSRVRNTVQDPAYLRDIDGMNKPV

Turning to `O=C1C[C@]23CCN(CC4CC4)C(Cc4ccc(O)cc42)[C@]3(O)CC/C1=C/c1ccccc1`, the inhibition constant (Ki) – broadly, a measure of affinity in units of concentration, obtained from inhibition or displacement – came out at 52.2 nM in [1], 9.81 nM in [4] and 17.5 nM in experiment [6]. For the same compound, the EC50 (usually the concentration that produces a half-maximal response) worked out at 1.83 nM in experiment [2], 19.2 nM in [3] and 21.4 nM in [5].

In the case of `O=C1CCC[C@@]2(O)C3Cc4ccc(O)cc4[C@@]2(CCN3CC2CC2)C1`, the figures for the Ki in experiment [1], in experiment [4] and in [6] were 0.692 nM, 12.1 nM and 0.748 nM, respectively.

Turning to `Oc1ccc2c(c1)[C@]13CCN(CC4CC4)[C@H](C2)[C@]1(O)CCc1c([nH]c2ccccc12)C3`, the Ratio Ki was determined as 12.5 in [7] and 10.8 in experiment [10]. Further, the values for the Emax in [8], in experiment [9] and in experiment [11] were 64.8%, 10% and 23.5%, respectively.

In the case of `Oc1ccc2c(c1)[C@]13CCN(CC4CC4)[C@@H](C2)[C@]1(O)Cc1c([nH]c2ccccc12)C3`, the figures for the Ratio Ki in experiment [7] and in experiment [10] were 31.4 and 261, respectively. Also, the Emax – broadly, the greatest response seen or fitted, relative to the assay's reference – in experiment [8] stood at 38.9%; in experiment [9] it was 15.4%. This compound came in with an Activity in experiment [12] of 33%.

`O=C1C[C@]23CCN(CC4CC4)[C@H](Cc4ccc(O)cc42)[C@]3(O)C/C1=C\c1ccccc1`: the results for the Ki in experiment [1], in experiment [4] and in experiment [6] were 22 nM, 2.76 nM and 39.1 nM, respectively. Moreover, the Ratio Ki in experiment [7] amounted to 14.2; in [10], 8. The results for the EC50 in [2], in experiment [3] and in experiment [5] were 12.5 nM, > 10000 nM and 8.02 nM, respectively. Also, the Emax in [8] was determined as 37%; in experiment [9] it was 20.2%. Besides, the Activity in experiment [12] is 25.6%.

For `O=C1/C(=C/c2ccccc2)C[C@@]2(O)[C@H]3Cc4ccc(O)c5c4[C@@]2(CCN3CC2CC2)[C@H]1O5` [BNTX], the values for the Ki in experiment [1], in [4] and in experiment [6] were 10.5 nM, 3.53 nM and 28.3 nM, respectively. Besides, the Ratio Ki in experiment [7] is 8; in experiment [10], 3.

For the compound `Oc1ccc2c(c1)[C@]13CCN(CC4CC4)[C@@H](C2)[C@]1(O)Cc1cc2ccccc2nc1C3`, the Ratio Ki in [7] was 10.7; in experiment [10] it was 23.8. The maximum response (Emax) in experiment [8] was 82.6%. In addition, the Activity was 20.8% in experiment [12] and 28.1% in [13].

For the compound `O=C1CCC[C@@]2(O)[C@H]3Cc4ccc(O)cc4[C@@]2(CCN3CC2CC2)C1`, the Ratio Ki in experiment [7] turned out to be 0.062; in experiment [10] it was 0.057.

Turning to `Oc1ccc2c(c1)[C@]13CCN(CC4CC4)C(C2)[C@]1(O)CCc1c([nH]c2ccccc12)C3`, the Ki in experiment [1] was determined as 5.75 nM; in experiment [4] it was 0.531 nM; in experiment [6], 6.63 nM. For the same compound, the EC50 is 1.06 nM in [2], 6.23 nM in [3] and 3.19 nM in [5].

For `Oc1ccc2c(c1)[C@]13CCN(CC4CC4)C(C2)[C@]1(O)CCc1cc2ccccc2nc1C3`, the Ki in experiment [1] amounted to 17.6 nM; in [4] it was 2.3 nM; in experiment [6] it was 4.3 nM. Moreover, the EC50 amounted to 7.32 nM in [2], 11.6 nM in experiment [3] and 28.4 nM in experiment [5].

Take `O=C1C[C@]23CCN(CC4CC4)[C@H](Cc4ccc(O)cc42)[C@]3(O)CC/C1=C/c1ccccc1`: the results for the Ratio Ki in experiment [7] and in experiment [10] were 1.8 and 5.3, respectively. Also, the results for the Emax in experiment [8], in experiment [9] and in experiment [11] were 27%, 39.4% and 38.6%, respectively.

On to `Oc1ccc2c(c1)[C@]13CCN(CC4CC4)C(C2)[C@]1(O)Cc1cc2ccccc2nc1C3`, for which the Ki in [1] is 7.2 nM; in [4], 0.303 nM; in [6] it was 3.22 nM. Further, the EC50 in [2] is 0.813 nM; in [3] it was > 10000 nM; in experiment [5] it was > 10000 nM.

Turning to `O=C1C[C@]23CCN(CC4CC4)[C@H](Cc4ccc(O)cc42)[C@]3(O)CC/C1=C\c1ccccc1`, the values for the Ratio Ki in experiment [7] and in [10] were 14.1 and 9, respectively. Also, in experiment [9], the Emax was found to be 18.4%.

With `O=C1C[C@]23CCN(CC4CC4)[C@H](Cc4ccc(O)cc42)[C@]3(O)C/C1=C/c1ccccc1`, the Ki in experiment [1] was 4.61 nM; in experiment [4], 0.585 nM; in [6] it was 9.65 nM. In addition, the Ratio Ki was determined as 16.5 in experiment [7] and 7.9 in [10]. Also, the values for the EC50 in experiment [2], in experiment [3] and in experiment [5] were 3.17 nM, 54.6 nM and > 10000 nM, respectively. Moreover, the figures for the Emax in [8] and in [11] were 40.8% and 31.8%, respectively. Moreover, in experiment [13], the Activity was 30%.

As for `Oc1ccc2c(c1)[C@]13CCN(CC4CC4)[C@H](C2)[C@]1(O)CCc1cc2ccccc2nc1C3`, the figures for the Ratio Ki in experiment [7] and in experiment [10] were 1.9 and 7.7, respectively. Also, the Emax in [8] turned out to be 104%; in experiment [9], 43.9%; in [11], 31.2%.

With `O=C1C[C@]23CCN(CC4CC4)C(Cc4ccc(O)cc42)[C@]3(O)CC/C1=C\c1ccccc1`, the Ki in experiment [1] amounted to 5.81 nM; in [4], 0.644 nM; in experiment [6], 9.11 nM. The values for the concentration giving a half-maximal response (EC50) in experiment [2] and in experiment [5] were > 10000 nM and 14.7 nM, respectively.

With `Oc1ccc2c(c1)[C@]13CCN(CC4CC4)C(C2)[C@]1(O)Cc1c([nH]c2ccccc12)C3`, the Ki stood at 24.7 nM in experiment [1], 0.0945 nM in experiment [4] and 2.97 nM in experiment [6]. Also, the EC50 in experiment [2] is 1.4 nM; in experiment [3], > 10000 nM; in [5] it was 3.76 nM.

On to `O=C1CC[C@@]2(O)[C@H]3Cc4ccc(O)cc4[C@@]2(CCN3CC2CC2)C1`, for which the Ki came out at 0.769 nM in [1], 2.62 nM in [4] and 0.648 nM in experiment [6]. Besides, the Ratio Ki in experiment [7] was determined as 0.25; in experiment [10] it was 0.29.
